Measurements from the Deep4Chem optical property database.
“And” between values parts separate entries of the source, which are not always exact repeats. Equal entries are not always repeated.

Experiment: solvent given as SMILES

`Nc1cccc2ncccc12` showed an absorption maximum (in CC#N) of 340 nm and an absorption maximum (in O) of 333 nm.

Molecule `COC(=O)/C=C/C=C/C1=CC2=C(c3c(C)cc(C)cc3C)c3cc(/C=C/C=C/C(=O)OC)cn3[B-](F)(F)[N+]2=C1` has an absorption maximum (in ClCCl) of 633 nm.

With `c1ccc2c(c1)c1ccc3cccc4c3c1c2c1c2cccc3ccc5c6ccccc6c(c5c32)c41` the absorption maximum (in ClCCl) was 625 nm.

Molecule `C(=C\c1nc2c(c(N3CCOCC3)n1)CCCC2)/c1ccccc1` has an absorption maximum (in ClCCl) of 284 nm.

Work on `N#Cc1ccc(N)c2nonc12` yielded an absorption maximum (in C1COCCO1) of 418 nm, an absorption maximum (in CC#N) of 421 nm and an absorption maximum (in CCCCCC) of 397 nm. The absorption maximum (in CCO) was 430 nm, the absorption maximum (in Cc1ccccc1) was 409 nm and the absorption maximum (in ClCCl) was 407 nm. It also gave an absorption maximum (in O) of 430 nm.

With `CN(C)c1ccc2c(-c3cc(N)ccc3C(=O)[O-])c3ccc(=[N+](C)C)cc-3oc2c1` the absorption maximum (in CCO) was 542 nm and the absorption maximum (in O) was 544 nm.

Work on `CCCCCCn1c2cc(C=C(C#N)C#N)sc2c2sc3c(sc4c5sc(C=C(C#N)C#N)cc5n(CCCCCC)c43)c21` yielded an absorption maximum (in ClCCl) of 588 nm.

With `CCC1(CC)c2cc(B(c3c(C)cc(C)cc3C)c3c(C)cc(C)cc3C)ccc2-c2ccc(N(c3ccccc3)c3ccc4c(c3)C(CC)(CC)c3cc(B(c5c(C)cc(C)cc5C)c5c(C)cc(C)cc5C)ccc3-4)cc21` the absorption maximum (in C1CCOC1) was 422 nm, the absorption maximum (in CC#N) was 417 nm and the absorption maximum (in CC(C)=O) was 418 nm. For the same molecule, the absorption maximum (in CCCCCC) was 422 nm, the absorption maximum (in CN(C)C=O) was 422 nm and the absorption maximum (in Cc1ccccc1) was 424 nm. For the same molecule, the absorption maximum (in ClC(Cl)Cl) was 422 nm.

Work on `Cc1ccc(C2=C3C=CC(C#Cc4ccccc4)=[N+]3[B-](F)(F)n3c(Cl)ccc32)cc1` yielded an absorption maximum (in C1CCCCC1) of 564 nm, an absorption maximum (in C1CCOC1) of 560 nm and an absorption maximum (in C1COCCO1) of 562 nm. The absorption maximum (in CCOC(C)=O) was 558 nm, the absorption maximum (in CO) was 556 nm and the absorption maximum (in Cc1ccccc1) was 566 nm. The absorption maximum (in ClC(Cl)Cl) was 564 nm.

`CCc1c(C)c2n(c1C)[B-](F)(F)[N+]1=C(c3ccc[nH]3)c3ccccc3C1=C2C` gave an absorption maximum (in C1CCOC1) of 604 nm, an absorption maximum (in CC#N) of 597 nm and an absorption maximum (in CCCCCC) of 604 nm. It also gave an absorption maximum (in CO) of 599 nm, an absorption maximum (in Cc1ccccc1) of 609 nm and an absorption maximum (in ClCCl) of 605 nm.

Molecule `CC1(C)c2ccccc2N(c2c(F)cc(-c3nnc(-c4ccccc4)o3)cc2F)c2ccccc21` has an absorption maximum (in Cc1ccccc1) of 376 nm and an absorption maximum (in O=P(c1ccccc1)(c1ccccc1)c1ccccc1Oc1ccccc1P(=O)(c1ccccc1)c1ccccc1) of 370 nm.

For `CC[n+]1c(-c2ccccc2)c2cc(NC(N)=[NH2+])ccc2c2ccc(NC(N)=[NH2+])cc21`, the absorption maximum (in O) was 397 nm.

In the case of `O=C(c1ccc2c3c(sc2c1)-c1ccccc1P3(=O)c1ccccc1)c1c(F)c(F)c(F)c(F)c1F` (stereo unspecified), the absorption maximum (in ClCCl) is reported as 368 nm and 381 nm.

In the case of `Cc1cc(C)c(B(c2c(C)cc(C)cc2C)c2ccc3ccc4cccc5ccc2c3c45)c(C)c1`, the absorption maximum (in Cc1ccccc1) is reported as 399 nm.

For `c1ccc2c(c1)ncc1ccc3cnc4ccccc4c3c12`, the absorption maximum (in CC#N) was 397 nm.

With `F[B-]1(F)n2c(c3ccccc3c2-c2ccccc2)N=C2c3ccccc3C(c3ccccc3)=[N+]21` the absorption maximum (in ClCCl) was 712 nm.

With `O=[N+]([O-])c1ccc2c(ccc3[n+]2[B-](F)(F)n2c-3cc3c4ccccc4c4ccccc4c32)c1` the absorption maximum (in ClCCl) was 530 nm.

In the case of `CCOC(=O)c1ccc(C2=Cc3ccccc3P2(=O)c2ccccc2)cc1` (stereo unspecified), the absorption maximum (in ClCCl) is reported as 353 nm.

Work on `COc1cc(/C=C2/SC(=O)NC2=O)ccc1O` yielded an absorption maximum (in C1CCCCC1) of 348 nm, an absorption maximum (in C1COCCO1) of 358 nm and an absorption maximum (in CC#N) of 354 nm. The absorption maximum (in CN(C)C=O) was 340 nm, the absorption maximum (in CO) was 355 nm and the absorption maximum (in O) was 355 nm. The absorption maximum (in OCC(O)CO) was 367 nm and the absorption maximum (in OCCO) was 361 nm.

With `N#CC1=C(c2ccc(-c3cccs3)s2)CCC1` the absorption maximum (in C1CCOC1) was 364 nm, the absorption maximum (in CC#N) was 362 nm and the absorption maximum (in CCCCCC) was 360 nm. For the same molecule, the absorption maximum (in CCO) was 366 nm, the absorption maximum (in OCCOCCO) was 367 nm and the absorption maximum (in c1ccncc1) was 368 nm.

With `COc1ccc2c3ccc(OC)cc3n(-c3ccc(-c4nnc(C)o4)cc3)c2c1` the absorption maximum (in Cc1ccccc1) was 319 nm.

With `CC1=CC(C)=[N+]2C1=Cc1c3ccccc3c(-c3[nH]c(C)cc3C)n1[B-]2(F)F` the absorption maximum (in ClCCl) was 609 nm.

Molecule `COc1cc2c(cc1-c1ccc(C=O)cc1)Cc1c3c(c4c(c1-2)-c1cc(OC)c(-c2ccc(C=O)cc2)cc1C4)C(=O)N(CCC(C)C)C3=O` has an absorption maximum (in C1CCOC1) of 414 nm.
